The results in this text go back to patent US8383615B2, “Azetidine 2-carboxamide derivatives which modulate the CB2 receptor” (Boehringer Ingelheim International GmbH, priority 2009, dated 2013).

As a reminder, the EC50 is the midpoint of the concentration-response curve. As usually defined, the pEC50 is −log10 of the EC50, conventionally taken in molar units.

Structures are written as SMILES. pEC50: −log10 of the molar value.

The target of the first experiment is T1, human CB2R (Homo sapiens, UniProt P34972).
T1 construct: host or cells: CHO cells
T1 sequence (P34972 whole entry): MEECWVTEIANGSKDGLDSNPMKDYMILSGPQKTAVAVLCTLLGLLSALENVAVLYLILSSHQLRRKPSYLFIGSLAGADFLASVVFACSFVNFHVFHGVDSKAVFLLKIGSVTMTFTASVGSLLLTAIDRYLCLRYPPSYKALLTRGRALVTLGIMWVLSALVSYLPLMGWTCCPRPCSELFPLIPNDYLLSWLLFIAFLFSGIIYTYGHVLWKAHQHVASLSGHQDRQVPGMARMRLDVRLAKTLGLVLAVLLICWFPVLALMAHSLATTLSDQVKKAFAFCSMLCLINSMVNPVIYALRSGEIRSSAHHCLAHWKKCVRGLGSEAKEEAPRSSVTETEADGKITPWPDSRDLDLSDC
Kind of experiment: CB2R mediated modulation of cAMP synthesis. Type of experiment: cell-based. Conditions: CB2 EC50 (nM), CHO cells expressing human CB2R; inhibition of forskolin-stimulated cAMP synthesis; agonist. As for the experimental part:
B. CB2R Mediated Modulation of cAMP Synthesis:
Compounds of the invention were evaluated for their CB2 agonist or inverse agonistic activity in accordance with the following experimental method.
CHO cells expressing human CB2R (Euroscreen) were plated at a density of 5000 cells per well in 384 well plates and incubated overnight at 37° C. After removing the media, the cells were treated with test compounds diluted in stimulation buffer containing 1 mM IBMX, 0.25% BSA and 10 uM Forskolin. The assay was incubated for 30 minutes at 37° C. Cells were lysed and the cAMP concentration was measured using DiscoverX-XS cAMP kit, following the manufacturer's protocol. In this setting, agonists will decrease forskolin induced production of cAMP while inverse agonists will further increase forskolin induced production of cAMP. EC50 of agonists were calculated as follows. The maximal amount of cAMP produced by forskolin compared to the level of cAMP inhibited by 1 uM CP55940 is defined as 100%. The EC50 value of each test compound was determined as the concentration at which 50% of the forskolin-stimulated cAMP synthesis was inhibited. Data was analyzed using a four-parameter logistic model. (Model 205 of XLfit 4.0).
As to `CC(C)N1CC[C@H]1C(=O)Nc1cc(C(C)(C)C)no1`, the EC50 was 26 nM.

Molecule `CC(C)(C)c1cc(NC(=O)[C@@H]2CCN2C2CCCC2)on1` returned a 50% effective concentration (EC50) of 6.6 nM. Against the preceding molecule, the EC50 is about 3.9-fold lower. Regarding `CC(C)(C)c1cc(NC(=O)[C@@H]2CCN2C2CCOCC2)no1` [drawing 132], the EC50 was 18 nM. The molecule `CCc1sc(NC(=O)[C@@H]2CCN2c2ccc(C(F)(F)F)cn2)nc1-c1ccccc1` showed an EC50 of 128 nM. Against the preceding molecule, the EC50 is about 7.1-fold higher. In turn, `O=C(Nc1nc2cc(Cl)ccc2s1)[C@@H]1CCN1C1CCOCC1` came in with an EC50 of 86 nM. The EC50 values of the last two molecules are within 1.5-fold of each other. On the same count and under the same terms, for `CC(C)(C)c1cc(NC(=O)[C@@H]2CCN2c2ncc(C(F)(F)F)cc2Cl)no1` [drawing 126] the value was 0.05 nM; for `CC(C)(CO)c1cc(NC(=O)[C@@H]2CCN2c2ncc(C(F)(F)F)cc2Cl)on1`, 0.12 nM; for `CC(C)(C)c1cc(NC(=O)[C@@H]2CCN2c2ccc(Cl)cc2)on1`, 0.75 nM. `CC(C)(C)c1cc(NC(=O)[C@@H]2CC(=O)N2c2ccc(Cl)cc2)on1` yielded a half-maximal effective concentration (EC50) of 17 nM.

As for `CC(C)(C)c1cc(NC(=O)[C@@H]2CCN2c2ccc(C(F)(F)F)cn2)on1`, the EC50 worked out at 0.67 nM.

`CCc1sc(NC(=O)[C@@H]2CCN2c2ncc(C(F)(F)F)cc2Cl)nc1-c1ccccc1` had an EC50 of 2.7 nM. This EC50 lies about 4-fold higher than the previous one. In the case of `O=C(Nc1nc(-c2ccc(F)c(F)c2)cs1)[C@@H]1CCN1C1CCOCC1`, the 50% effective concentration (EC50) came to 203 nM. Same read-out and setting: for `CCCS(=O)(=O)N1CC[C@H]1C(=O)Nc1cc(C(C)(C)C)on1` the value was 157 nM; for `O=C(Nc1nc2c(F)cccc2s1)[C@@H]1CCN1C1CCOCC1`, 153 nM; for `CC(C)(CO)c1cc(NC(=O)[C@@H]2CCN2c2ccc(F)cc2)on1`, 22 nM. Still for that read-out and setting: to `CC(C)(C)c1coc(NC(=O)[C@@H]2CCN2C2CCOCC2)n1` belongs 206 nM; to `CC(C)(C)c1cc(NC(=O)[C@@H]2CC(=O)N2c2ccc(Cl)cc2)no1`, 50 nM; to `CC(C)(CO)c1cc(NC(=O)[C@@H]2CCN2c2ccc(Cl)cc2)on1`, 18 nM. The same measure, in the same setting: to `O=C(Nc1cc(C(F)(F)F)no1)[C@@H]1CCN1c1ccc(Cl)cc1` belongs 43 nM; to `CC(C)(C)c1cc(NC(=O)[C@@H]2CCN2Cc2ccc(F)c(F)c2)on1`, 14 nM. For the molecule `CCc1sc(NC(=O)[C@@H]2CCN2CC2CCOCC2)nc1-c1ccccc1`, the response was half-maximal at 4.1 nM (EC50). This EC50 lies about 3.4-fold lower than the previous one. Molecule `CC(C)(CO)c1cc(NC(=O)[C@@H]2CCN2c2ccc(C(F)(F)F)cn2)on1` came in with an EC50 of 18 nM. `CC(C)(C)c1cc(NC(=O)[C@@H]2CCN2c2ccc(Cl)cc2)no1` displayed an EC50 of 1.7 nM. On to `CCc1sc(NC(=O)[C@@H]2CCN2C2CCOCC2)nc1-c1ccccc1`, for which the EC50 amounted to 116 nM.

The molecule `CC(C)(C)c1cc(NC(=O)[C@@H]2CCN2S(=O)(=O)c2ccc(S(C)(=O)=O)cc2)no1` showed a 50% effective concentration (EC50) of 197 nM.

As for `CC(C)(C)c1cc(NC(=O)[C@@H]2CCN2C2CCOCC2)no1` [drawing 128], the EC50 came to 8.8 nM. The same measure, in the same setting: to `COCC(C)(C)c1cc(NC(=O)[C@@H]2CCN2C2CCOCC2)on1` belongs 75 nM. Same read-out and setting: to `O=C(Nc1nc(C2CCCCC2)cs1)[C@@H]1CCN1C1CCOCC1` belongs 56 nM; to `COCC(C)(C)c1cc(NC(=O)[C@@H]2CCN2c2ccc(F)cc2)on1`, 5.6 nM; to `CC(C)(C)c1nsc(NC(=O)[C@@H]2CCN2C2CCOCC2)n1`, 471 nM. `COCC(C)(C)c1cc(NC(=O)[C@@H]2CCN2c2ccc(F)cc2)no1` showed a concentration giving a half-maximal response (EC50) of 7.7 nM. Regarding `CC(C)(C)c1cc(NC(=O)[C@@H]2CCN2C2CCOCC2)sn1`, the concentration giving a half-maximal response (EC50) is 313 nM. This EC50 is about 41-fold higher than that of the molecule before.

In the case of `CC(C)(C)c1cc(NC(=O)[C@@H]2CCN2S(=O)(=O)c2ccc(S(C)(=O)=O)cc2)on1`, the half-maximal effective concentration (EC50) is 357 nM. Molecule `CC(C)(C)c1cc(NC(=O)[C@@H]2CCN2C2CCCCC2)on1` gave an EC50 of 0.08 nM. As for `COCC(C)(C)c1cc(NC(=O)[C@@H]2CCN2c2ccc(Cl)cc2)no1`, it took 12 nM to reach a half-maximal effect (EC50). Compared with the last molecule, the EC50 is about 150-fold higher. Regarding `CC(C)(C)Cc1cc(NC(=O)[C@@H]2CCN2C2CCOCC2)on1`, it took 243 nM to reach a half-maximal effect (EC50). The same measure, in the same setting: to `CC(C)(C)c1cc(NC(=O)[C@@H]2CCN2c2ncc(C(F)(F)F)cc2Cl)no1` [drawing 125] belongs 0.02 nM.

Staying with this experiment, now noted: CHO cells expressing human CB2R; inhibition of forskolin-stimulated cAMP synthesis; agonist; read-out: CB2 EC50.
Turning to `O=C(Nc1nc(-c2ccccc2)cs1)[C@@H]1CCN1C1CCOCC1`, the pEC50 is 6.33. `O=C(Nc1ccc(C(F)(F)F)c(F)c1)[C@@H]1CCN1C1CCOCC1`: the pEC50 was 6.43. As for `CC(C)(C)c1cc(NC(=O)[C@@H]2CCN2C(=O)C2CCC(F)(F)CC2)no1`, the negative-log EC50 (pEC50) was 6.90.
